Results taken from patent US6706663B2, “Herbicidal 3-heterocyclic substituted benzisothiazole and benzisoxazole compounds” (Wyeth, priority 2000, dated 2004).

Assays:
[1] = test system: MOOVA (Monochoria vaginalis); test: Flooded paddy, preemergence weed control; type: in vivo, Presl.; settings: rate 0.0320 kg/ha, rated 3-4 weeks after treatment, 0-9 rating scale
Method in brief: (§1)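 Flooded silt loam pots, seeds in upper 0.5 cm, water held 1.5–3 cm deep; greenhouse; visual 0-9 score vs control.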

[2] = test system: TRZAWR (Wheat, Winter, cv Riband); test: Preemergence herbicidal evaluation; type: in vivo, Triticum aestivum; settings: rated 4-5 weeks after treatment
Method in brief: (§2)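 Rating 0–9, visual, vs control; 4–5 wk after spraying seeded cups with compound in aq. acetone; conventional greenhouse care.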

[3] = test system: CYPIR (Cyperus iria); test: Flooded paddy, preemergence weed control; type: in vivo; settings: rated 3-4 weeks after treatment, 0-9 rating scale
Method in brief: as §1

[4] = test system: IPOHE (Ipomoea hederacea); test: Postemergence herbicidal evaluation; type: in vivo, (L.) Jacq.; settings: postemergence
Method in brief: (§3)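 Visual 0–9 injury scores versus control plants, covering stand, vigour, malformation, size, chlorosis and general appearance, taken four to five weeks post-spray and averaged over replicate tests. Plants were sprayed at roughly two weeks old and held on greenhouse benches.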

[5] = test system: IPOHE (Ipomoea hederacea); test: Preemergence herbicidal evaluation; type: in vivo, (L.) Jacq.; settings: rated 4-5 weeks after treatment
[6] = test system: ZEAMX (Corn, Field); test: Preemergence herbicidal evaluation; type: in vivo, Zea mays, L.; settings: rated 4-5 weeks after treatment
[7] = test system: ORYSAT (Rice, Tebonnet); test: Postemergence herbicidal evaluation; type: in vivo, Oryza sativa, (L.) Tebonnet; settings: postemergence
Method in brief: as §3

[8] = test system: GLXMAW (Soybean, Williams); test: Postemergence herbicidal evaluation; type: in vivo, Glycine max, (L.) Merr. cv Williams; settings: postemergence
Method in brief: as §3

[9] = test system: ABUTH (Abutilon theophrasti); test: Postemergence herbicidal evaluation; type: in vivo, Medic.; settings: postemergence
Method in brief: as §3

[10] = test system: AMBEL (Ambrosia artemisifolia); test: Postemergence herbicidal evaluation; type: in vivo, L.; settings: postemergence
Method in brief: as §3

[11] = test system: CHEAL (Chenopodium album); test: Postemergence herbicidal evaluation; type: in vivo, L.; settings: postemergence
Method in brief: as §3

[12] = test system: CASOB (Cassia obtusifolia); test: Postemergence herbicidal evaluation; type: in vivo, L.; settings: postemergence
Method in brief: as §3

[13] = test system: ABUTH (Abutilon theophrasti); test: Preemergence herbicidal evaluation; type: in vivo, Medic.; settings: rated 4-5 weeks after treatment
[14] = test system: ORYSAT (Rice, Tebonnet); test: Flooded paddy, post-transplant rice tolerance; type: in vivo, Oryza sativa, (L.) Tebonnet; settings: flooded paddy, post-transplant rice, rated 3-4 weeks after treatment, 0-9 rating scale
Method in brief: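 Scores (0-9) reflect visual injury relative to untreated plants in flooded silt loam. Each pot held two transplanted ten-day-old seedlings under 1.5 to 3 cm standing water in the greenhouse.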

[15] = test system: GLXMAW (Soybean, Williams); test: Preemergence herbicidal evaluation; type: in vivo, Glycine max, (L.) Merr. cv Williams; settings: rated 4-5 weeks after treatment
[16] = test system: SETVI (Setaria viridis); test: Preemergence herbicidal evaluation; type: in vivo, (L.) Beau; settings: rated 4-5 weeks after treatment
Method in brief: as §2

[17] = test system: ECHCG (Echinochloa crus-galli); test: Preemergence herbicidal evaluation; type: in vivo, (L.) Beau; settings: rated 4-5 weeks after treatment
Method in brief: as §2

[18] = test system: AMBEL (Ambrosia artemisifolia); test: Preemergence herbicidal evaluation; type: in vivo, L.; settings: rated 4-5 weeks after treatment
Method in brief: as §2

[19] = test system: CHEAL (Chenopodium album); test: Preemergence herbicidal evaluation; type: in vivo, L.; settings: rated 4-5 weeks after treatment
Method in brief: as §2

[20] = test system: CASOB (Cassia obtusifolia); test: Preemergence herbicidal evaluation; type: in vivo, L.; settings: rated 4-5 weeks after treatment
Method in brief: as §2

Cc1nn(-c2nsc3ccc(-n4c(=O)cc(C(F)(F)F)n(C)c4=O)cc23)c(C)c1C [Compound 49, 1-methyl-6-(trifluoromethyl)-3-[3-(3,4,5-trimethylpyrazol-1-yl)-1,2-benzisothiazol-5-yl]uracil]
herbicidal rating, MOOVA [1]: 0.0 | Preemergence herbicidal rating TRZAWR ([2]; Rate 0.0620 kg/ha): 0.0 | Preemergence herbicidal rating TRZAWR ([2]; Rate 0.1250 kg/ha): 0.0 | Preemergence herbicidal rating TRZAWR ([2]; Rate 0.2500 kg/ha): 0.0 | herbicidal rating, CYPIR ([3]; rate 0.0320 kg/ha): 0.0 | herbicidal rating, CYPIR ([3]; rate 0.1250 kg/ha): 0.0 | IPOHE herbicidal rating ([4]; rate 0.0320 kg/ha): 5.0 | IPOHE herbicidal rating ([4]; rate 0.0620 kg/ha): 8.0 | Preemergence herbicidal rating IPOHE ([5]; Rate 0.0620 kg/ha): 0.0 | Preemergence herbicidal rating IPOHE ([5]; Rate 0.1250 kg/ha): 0.0 | Preemergence herbicidal rating IPOHE ([5]; Rate 0.2500 kg/ha): 0.0 | Preemergence herbicidal rating ZEAMX ([6]; Rate 0.0620 kg/ha): 0.0 | Preemergence herbicidal rating ZEAMX ([6]; Rate 0.1250 kg/ha): 0.0 | Preemergence herbicidal rating ZEAMX ([6]; Rate 0.2500 kg/ha): 0.0 | ORYSAT herbicidal rating ([7]; rate 0.0320 kg/ha): 0.5 | ORYSAT herbicidal rating ([7]; rate 0.0620 kg/ha): 1.5 | GLXMAW herbicidal rating ([8]; rate 0.0320 kg/ha): 1.5 | GLXMAW herbicidal rating ([8]; rate 0.0620 kg/ha): 2.5 | ABUTH herbicidal rating ([9]; rate 0.0320 kg/ha): 0.0 | ABUTH herbicidal rating ([9]; rate 0.0620 kg/ha): 0.0 | AMBEL herbicidal rating ([10]; rate 0.0320 kg/ha): 0.0 | AMBEL herbicidal rating ([10]; rate 0.0620 kg/ha): 0.0 | CHEAL herbicidal rating ([11]; rate 0.0320 kg/ha): 0.0 | CHEAL herbicidal rating ([11]; rate 0.0620 kg/ha): 0.0 | CASOB herbicidal rating ([12]; rate 0.0320 kg/ha): 0.0 | CASOB herbicidal rating ([12]; rate 0.0620 kg/ha): 0.0 | Preemergence herbicidal rating ABUTH ([13]; Rate 0.0620 kg/ha): 0.0 | Preemergence herbicidal rating ABUTH ([13]; Rate 0.1250 kg/ha): 0.0 | Preemergence herbicidal rating ABUTH ([13]; Rate 0.2500 kg/ha): 0.0 | herbicidal rating, ORYSAT (rice tolerance) ([14]; rate 0.0320 kg/ha): 0.0 | herbicidal rating, ORYSAT (rice tolerance) ([14]; rate 0.1250 kg/ha): 0.0 | Preemergence herbicidal rating GLXMAW ([15]; Rate 0.0620 kg/ha): 0.0 | Preemergence herbicidal rating GLXMAW ([15]; Rate 0.1250 kg/ha): 0.0 | Preemergence herbicidal rating GLXMAW ([15]; Rate 0.2500 kg/ha): 0.0 | Preemergence herbicidal rating SETVI ([16]; Rate 0.0620 kg/ha): 0.0 | Preemergence herbicidal rating SETVI ([16]; Rate 0.1250 kg/ha): 0.0 | Preemergence herbicidal rating SETVI ([16]; Rate 0.2500 kg/ha): 0.0 | Preemergence herbicidal rating ECHCG ([17]; Rate 0.0620 kg/ha): 0.0 | Preemergence herbicidal rating ECHCG ([17]; Rate 0.1250 kg/ha): 0.0 | Preemergence herbicidal rating ECHCG ([17]; Rate 0.2500 kg/ha): 0.0 | Preemergence herbicidal rating AMBEL ([18]; Rate 0.0620 kg/ha): 0.0 | Preemergence herbicidal rating AMBEL ([18]; Rate 0.1250 kg/ha): 0.0 | Preemergence herbicidal rating AMBEL ([18]; Rate 0.2500 kg/ha): 0.0 | Preemergence herbicidal rating CHEAL ([19]; Rate 0.0620 kg/ha): 0.0 | Preemergence herbicidal rating CHEAL ([19]; Rate 0.1250 kg/ha): 0.0 | Preemergence herbicidal rating CHEAL ([19]; Rate 0.2500 kg/ha): 0.0 | Preemergence herbicidal rating CASOB ([20]; Rate 0.0620 kg/ha): 0.0 | Preemergence herbicidal rating CASOB ([20]; Rate 0.1250 kg/ha): 0.0 | Preemergence herbicidal rating CASOB ([20]; Rate 0.2500 kg/ha): 0.0
